pIC50: −log10 of the molar value.
Tested on: OVCAR-5 complex spheroid (HUVEC/MSC), viability % T/C
Assay: Anticancer human tumor OVCAR-5 cell line growth inhibition [Asc];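 also: spheroids exposed to agents for 7 days before readout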;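 as to viability, T/C: 100% = DMSO vehicle-treated wells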
Settings: for pIC50: curve of first compound; for viability, T/C: stronger effect = lower value
Outline: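 Complex spheroids combining tumor cells with HUVEC endothelial cells and human MSCs, at 37 degrees C, 5% CO2; agents tested alone or combined, half-log dilutions from at or near clinical Cmax, or 10 microM if Cmax unknown.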

[1] = second compound 0.03 µM, first compound 0.0316 µM
[2] = second compound 0.03 µM, first compound 0.1 µM
[3] = second compound 0.03 µM, first compound 0.316 µM
[4] = second compound 0.03 µM, first compound 1 µM
[5] = second compound 0.03 µM, first compound 3.16 µM
[6] = second compound 0.03 µM, first compound 10 µM
[7] = second compound 0.0949 µM, first compound 0.0316 µM
[8] = second compound 0.0949 µM, first compound 0.1 µM
[9] = second compound 0.0949 µM, first compound 0.316 µM
[10] = second compound 0.0949 µM, first compound 1 µM
[11] = second compound 0.0949 µM, first compound 3.16 µM
[12] = second compound 0.0949 µM, first compound 10 µM
[13] = second compound 0.3 µM, first compound 0.0316 µM
[14] = second compound 0.3 µM, first compound 0.1 µM
[15] = second compound 0.3 µM, first compound 0.316 µM
[16] = second compound 0.3 µM, first compound 1 µM
[17] = second compound 0.3 µM, first compound 3.16 µM
[18] = second compound 0.3 µM, first compound 10 µM
[19] = second compound 0.949 µM, first compound 0.0316 µM
[20] = second compound 0.949 µM, first compound 0.1 µM
[21] = second compound 0.949 µM, first compound 0.316 µM
[22] = second compound 0.949 µM, first compound 1 µM
[23] = second compound 0.949 µM, first compound 3.16 µM
[24] = second compound 0.949 µM, first compound 10 µM
[25] = second compound 3 µM, first compound 0.0316 µM
[26] = second compound 3 µM, first compound 0.1 µM
[27] = second compound 3 µM, first compound 0.316 µM
[28] = second compound 3 µM, first compound 1 µM
[29] = second compound 3 µM, first compound 3.16 µM
[30] = second compound 3 µM, first compound 10 µM

SMILES | pIC50 (second compound 0.03 µM) | pIC50 (second compound 0.0949 µM) | pIC50 (second compound 0.3 µM) | pIC50 (second compound 0.949 µM) | pIC50 (second compound 3 µM) | viability, T/C [1] [%] | viability, T/C [2] [%] | viability, T/C [3] [%] | viability, T/C [4] [%] | viability, T/C [7] [%] | viability, T/C [8] [%] | viability, T/C [9] [%] | viability, T/C [10] [%] | viability, T/C [13] [%] | viability, T/C [14] [%] | viability, T/C [15] [%] | viability, T/C [16] [%] | viability, T/C [19] [%] | viability, T/C [20] [%] | viability, T/C [21] [%] | also measured
C#Cc1c(F)ccc2cc(O)cc(-c3ncc4c(N5CC6CCC(C5)N6)nc(OCC56CCCN5CC(F)C6)nc4c3F)c12 (stereo not given) + CCN1C(C(=O)NC23CCC(C(=O)O)(CC2)CC3)C(c2cccc(Cl)c2F)C2(C(=O)Nc3cc(Cl)ccc32)C12CCCCC2 | 5.17 | 5.17 | 5.17 | 5.19 | 5.27 | 108 | 108 | 83.3 | 78 | 106 | 105 | 91.1 | 88.8 | 101 | 107 | 106 | 74.8 | 99 | 109 | 102 | viability, T/C [5]: 73%; viability, T/C [6]: 39.1%; viability, T/C [11]: 66.5%; viability, T/C [12]: 40.8%; viability, T/C [17]: 66.2%; viability, T/C [18]: 42.4%; viability, T/C [22]: 84.4%; viability, T/C [23]: 65.5%; viability, T/C [24]: 41.3%; viability, T/C [25]: 104%; viability, T/C [26]: 107%; viability, T/C [27]: 107%; viability, T/C [28]: 79.5%; viability, T/C [29]: 61.2%; viability, T/C [30]: 39.6%
C=C(F)C(=O)N1CCN(c2nc(OCC3CCCN3C)nc3c2CCN(c2cccc4cccc(Cl)c24)C3)CC1CC#N (stereo not given) + CCN1C(C(=O)NC23CCC(C(=O)O)(CC2)CC3)C(c2cccc(Cl)c2F)C2(C(=O)Nc3cc(Cl)ccc32)C12CCCCC2 | 5.86 | 5.90 | 5.89 | 5.89 | 5.89 | 108 | 94.2 | 90.1 | 67.2 | 102 | 104 | 87.7 | 62.4 | 101 | 122 | 101 | 62.7 | 109 | 110 | 105 | viability, T/C [5]: 9.46%; viability, T/C [6]: 0.18%; viability, T/C [11]: 9.56%; viability, T/C [12]: 0.18%; viability, T/C [17]: 7.84%; viability, T/C [18]: 0.2%; viability, T/C [22]: 60.4%; viability, T/C [23]: 11.3%; viability, T/C [24]: 0.18%; viability, T/C [25]: 115%; viability, T/C [26]: 112%; viability, T/C [27]: 104%; viability, T/C [28]: 61.8%; viability, T/C [29]: 10.2%; viability, T/C [30]: 1.38%
C=CC(=O)N1CCN(c2nc(=O)n(-c3c(C)ccnc3C(C)C)c3nc(-c4c(O)cccc4F)c(F)cc23)C(C)C1 (stereo not given) + CCN1C(C(=O)NC23CCC(C(=O)O)(CC2)CC3)C(c2cccc(Cl)c2F)C2(C(=O)Nc3cc(Cl)ccc32)C12CCCCC2 | < 5.00 | < 5.00 | < 5.00 | < 5.00 | < 5.00 | 112 | 111 | 120 | 125 | 110 | 111 | 106 | 112 | 105 | 119 | 112 | 121 | 109 | 118 | 102 | viability, T/C [5]: 113%; viability, T/C [6]: 104%; viability, T/C [11]: 116%; viability, T/C [12]: 92.1%; viability, T/C [17]: 118%; viability, T/C [18]: 116%; viability, T/C [22]: 103%; viability, T/C [23]: 109%; viability, T/C [24]: 106%; viability, T/C [25]: 116%; viability, T/C [26]: 118%; viability, T/C [27]: 122%; viability, T/C [28]: 111%; viability, T/C [29]: 111%; viability, T/C [30]: 111%
CNC(C)C(=O)NC1CN(S(=O)(=O)c2cccc(S(=O)(=O)N3CCC4CCC(C(=O)NC(c5ccccc5)c5ccccc5)N4C(=O)C(NC(=O)C(C)NC)C3)c2)CCC2CCC(C(=O)NC(c3ccccc3)c3ccccc3)N2C1=O (stereo not given) + CCN1C(C(=O)NC23CCC(C(=O)O)(CC2)CC3)C(c2cccc(Cl)c2F)C2(C(=O)Nc3cc(Cl)ccc32)C12CCCCC2 | < 6.00 | < 6.00 | < 6.00 | < 6.00 | < 6.00 | 86.2 | 84.7 | 94.4 | 75 | 80.7 | 77.1 | 78.8 | 78.3 | 84.5 | 74.7 | 87.3 | 95.3 | 87.5 | 70.2 | 85.1 | viability, T/C (second compound 0.03 µM, first compound 0.00316 µM): 97.3%; viability, T/C (second compound 0.03 µM, first compound 0.01 µM): 107%; viability, T/C (second compound 0.0949 µM, first compound 0.00316 µM): 90.5%; viability, T/C (second compound 0.0949 µM, first compound 0.01 µM): 102%; viability, T/C (second compound 0.3 µM, first compound 0.00316 µM): 102%; viability, T/C (second compound 0.3 µM, first compound 0.01 µM): 94%; viability, T/C (second compound 0.949 µM, first compound 0.00316 µM): 109%; viability, T/C (second compound 0.949 µM, first compound 0.01 µM): 102%; viability, T/C [22]: 95%; viability, T/C (second compound 3 µM, first compound 0.00316 µM): 102%; viability, T/C (second compound 3 µM, first compound 0.01 µM): 101%; viability, T/C [25]: 96.7%; viability, T/C [26]: 79.9%; viability, T/C [27]: 84.4%; viability, T/C [28]: 90.8%
